In patent US11390604B2 (Hoffmann-La Roche Inc., priority 2019, dated 2022):
Counter-ions that a name gives are not always drawn.

What follows are molecules tested on Acinetobacter baumannii ATCC 17961 (assay: Antimicrobial susceptibility testing: 90% growth inhibitory concentration (IC90) determination). Conditions: ATCC17961, Acinetobacter baumannii ATCC 17961, Iso-Sensitest broth, read-out: ATCC 17961 IC90.
Assay type: cell-based
Method: Antimicrobial Susceptibility Testing:
90% Growth Inhibitory Concentration (IC90) Determination
The in vitro antimicrobial activity of the compounds was determined according to the following procedure:
The assay used a 10-points Iso-Sensitest broth medium to measure quantitatively the in vitro activity of the compounds against Acinetobacter baumannii ATCC 17961.
Stock compounds in DMSO were serially twofold diluted (e.g. range from 50 to 0.097 μM final concentration) in 384 wells microtiter plates and inoculated with 49 μl the bacterial suspension in Iso-Sensitest medium to have a final cell concentration of ˜5×10^(5) CFU/ml in a final volume/well of 50 ul/well. Microtiter plates were incubated at 35±2° C.
Bacterial cell growth was determined with the measurement of optical density at X=600 nm each 20 minutes over a time course of 16 h. Growth inhibition was calculated during the logarithmic growth of the bacterial cells with determination of the concentration inhibiting 50% (IC50) and 90% (IC90) of the growth.
Table 1 provides the 90% growth inhibitory concentrations (IC90) in micromoles per liter of the compounds of present disclosure obtained against the strain Acinetobacter baumannii ATCC 17961.

**Q.** With `Cn1c(-c2cn(CC(F)F)nc2C(F)(F)F)cnc1C(=O)Nc1ccc(C(=O)N2CCN(C(=O)C3CCNCC3)CC2)c(Cl)c1` [Example 12, N-(3-chloro-4-(4-(piperidine-4-carbonyl)piperazine-1-carbonyl)phenyl)-5-(1-(2,2-difluoroethyl)-3-(trifluoromethyl)-1H-pyrazol-4-yl)-1-methyl-1H-imidazole-2-carboxamide hydrochloride] as the molecule, how does the IC90 read?
**A.** 700 nM

**Q.** How did the IC90 turn out when `C#CCn1cc(-c2cnc(C(=O)Nc3ccc(C(=O)N4CCN(C(=O)C5CCN(C)CC5)CC4)c(Cl)c3)n2C)c(C(F)(F)F)n1` [Example 13, N-(3-chloro-4-(4-(1-methylpiperidine-4-carbonyl)piperazine-1-carbonyl)phenyl)-1-methyl-5-(1-(prop-2-yn-1-yl)-3-(trifluoromethyl)-1H-pyrazol-4-yl)-1H-imidazole-2-carboxamide] was run?
**A.** 335 nM

**Q.** Which IC90 does the source give for `CN1CCC(C(=O)N2CCN(C(=O)c3ccc(NC(=O)c4ncc(-c5c[nH]nc5C(F)(F)F)n4C)cc3Cl)CC2)CC1` [Example 14, N-[3-chloro-4-[4-(1-methylpiperidine-4-carbonyl)piperazine-1-carbonyl]phenyl]-1-methyl-5-[3-(trifluoromethyl)-1H-pyrazol-4-yl]imidazole-2-carboxamide] here?
**A.** 516 nM

**Q.** Which IC90 does the source give for `CN1CCC(C(=O)N2CCN(C(=O)c3ccc(NC(=O)c4ncc(-c5cn(CC#N)nc5C(F)(F)F)n4C)cc3Cl)CC2)CC1` [Example 15, N-(3-chloro-4-(4-(1-methylpiperidine-4-carbonyl)piperazine-1-carbonyl)phenyl)-5-(1-(cyanomethyl)-3-(trifluoromethyl)-1H-pyrazol-4-yl)-1-methyl-1H-imidazole-2-carboxamide] here?
**A.** 558 nM

**Q.** With `Cn1c(-c2cn(C3CS(=O)(=O)C3)nc2C(F)(F)F)cnc1C(=O)Nc1ccc(C(=O)N2CCN(C(=O)C3CCNCC3)CC2)c(Cl)c1` [Example 16, N-(3-chloro-4-(4-(piperidine-4-carbonyl)piperazine-1-carbonyl)phenyl)-5-(1-(1,1-dioxidothietan-3-yl)-3-(trifluoromethyl)-1H-pyrazol-4-yl)-1-methyl-1H-imidazole-2-carboxamide] as the molecule, how does the IC90 read?
**A.** 1360 nM

**Q.** With `Cn1c(-c2cn(CC#CCN)nc2C(F)(F)F)cnc1C(=O)Nc1ccc(C(=O)N2CCN(C(=O)C3CCNCC3)CC2)c(Cl)c1` [Example 17, 5-(1-(4-aminobut-2-yn-1-yl)-3-(trifluoromethyl)-1H-pyrazol-4-yl)-N-(3-chloro-4-(4-(piperidine-4-carbonyl)piperazine-1-carbonyl)phenyl)-1-methyl-1H-imidazole-2-carboxamide dihydrochloride] as the molecule, how does the IC90 read?
**A.** 607 nM

**Q.** How did the IC90 turn out when `COCC#CCn1cc(-c2cnc(C(=O)Nc3ccc(C(=O)N4CCN(C(=O)C5CCNCC5)CC4)c(Cl)c3)n2C)c(C(F)(F)F)n1` [Example 18, N-(3-chloro-4-(4-(piperidine-4-carbonyl)piperazine-1-carbonyl)phenyl)-5-(1-(4-methoxybut-2-yn-1-yl)-3-(trifluoromethyl)-1H-pyrazol-4-yl)-1-methyl-1H-imidazole-2-carboxamide hydrochloride] was run?
**A.** 419 nM

**Q.** For `CCC#CCn1cc(-c2cnc(C(=O)Nc3ccc(C(=O)N4CCN(C(=O)C5CCNCC5)CC4)c(Cl)c3)n2C)c(C(F)(F)F)n1` [Example 19, N-(3-chloro-4-(4-(piperidine-4-carbonyl)piperazine-1-carbonyl)phenyl)-1-methyl-5-(1-(pent-2-yn-1-yl)-3-(trifluoromethyl)-1H-pyrazol-4-yl)-1H-imidazole-2-carboxamide hydrochloride], which IC90 is on record?
**A.** 172 nM

**Q.** With `Cn1c(-c2cn(CC(N)=O)nc2C(F)(F)F)cnc1C(=O)Nc1ccc(C(=O)N2CCN(C(=O)C3CCNCC3)CC2)c(Cl)c1` [Example 20, 5-(1-(2-amino-2-oxoethyl)-3-(trifluoromethyl)-1H-pyrazol-4-yl)-N-(3-chloro-4-(4-(piperidine-4-carbonyl)piperazine-1-carbonyl)phenyl)-1-methyl-1H-imidazole-2-carboxamide formate] as the molecule, how does the IC90 read?
**A.** 1660 nM

**Q.** With `CN(C)C(=O)Cn1cc(-c2cnc(C(=O)Nc3ccc(C(=O)N4CCN(C(=O)C5CCNCC5)CC4)c(Cl)c3)n2C)c(C(F)(F)F)n1` [Example 21, N-(3-chloro-4-(4-(piperidine-4-carbonyl)piperazine-1-carbonyl)phenyl)-5-(1-(2-(dimethylamino)-2-oxoethyl)-3-(trifluoromethyl)-1H-pyrazol-4-yl)-1-methyl-1H-imidazole-2-carboxamide formate] as the molecule, how does the IC90 read?
**A.** 1870 nM

**Q.** With `CC(C(N)=O)n1cc(-c2cnc(C(=O)Nc3ccc(C(=O)N4CCN(C(=O)C5CCNCC5)CC4)c(Cl)c3)n2C)c(C(F)(F)F)n1` (stereo not drawn) [Example 22, 5-(1-(1-amino-1-oxopropan-2-yl)-3-(trifluoromethyl)-1H-pyrazol-4-yl)-N-(3-chloro-4-(4-(piperidine-4-carbonyl)piperazine-1-carbonyl)phenyl)-1-methyl-1H-imidazole-2-carboxamide formate] as the molecule, how does the IC90 read?
**A.** 1290 nM

**Q.** For `Cn1c(-c2cn(CCn3cccn3)nc2C(F)(F)F)cnc1C(=O)Nc1ccc(C(=O)N2CCN(C(=O)C3CCNCC3)CC2)c(Cl)c1` [Example 23, 5-(1-(2-(1H-pyrazol-1-yl)ethyl)-3-(trifluoromethyl)-1H-pyrazol-4-yl)-N-(3-chloro-4-(4-(piperidine-4-carbonyl)piperazine-1-carbonyl)phenyl)-1-methyl-1H-imidazole-2-carboxamide formate], which IC90 is on record?
**A.** 1420 nM

**Q.** `CC(C)NC(=O)Cn1cc(-c2cnc(C(=O)Nc3ccc(C(=O)N4CCN(C(=O)C5CCNCC5)CC4)c(Cl)c3)n2C)c(C(F)(F)F)n1` [Example 24, N-(3-chloro-4-(4-(piperidine-4-carbonyl)piperazine-1-carbonyl)phenyl)-5-(1-(2-(isopropylamino)-2-oxoethyl)-3-(trifluoromethyl)-1H-pyrazol-4-yl)-1-methyl-1H-imidazole-2-carboxamide formate] was tested. Which IC90 did it give?
**A.** 981 nM

**Q.** Which IC90 does the source give for `COCCOCCn1cc(-c2cnc(C(=O)Nc3ccc(C(=O)N4CCN(C(=O)C5CCNCC5)CC4)c(Cl)c3)n2C)c(C(F)(F)F)n1` [Example 25, N-(3-chloro-4-(4-(piperidine-4-carbonyl)piperazine-1-carbonyl)phenyl)-5-(1-(2-(2-methoxyethoxy)ethyl)-3-(trifluoromethyl)-1H-pyrazol-4-yl)-1-methyl-1H-imidazole-2-carboxamide] here?
**A.** 2010 nM

**Q.** For `Cn1c(-c2cn(C3CCN(C4CC4)C3=O)nc2C(F)(F)F)cnc1C(=O)Nc1ccc(C(=O)N2CCN(C(=O)C3CCNCC3)CC2)c(Cl)c1` (stereo not drawn) [Example 26, N-(3-chloro-4-(4-(piperidine-4-carbonyl)piperazine-1-carbonyl)phenyl)-5-(1-(1-cyclopropyl-2-oxopyrrolidin-3-yl)-3-(trifluoromethyl)-1H-pyrazol-4-yl)-1-methyl-1H-imidazole-2-carboxamide formate], which IC90 is on record?
**A.** 1910 nM

**Q.** With `CC(C)Cn1cc(-c2cnc(C(=O)Nc3ccc(C(=O)N4CCN(C(=O)C5CCNCC5)CC4)c(Cl)c3)n2C)c(C(F)(F)F)n1` [Example 27, N-(3-chloro-4-(4-(piperidine-4-carbonyl)piperazine-1-carbonyl)phenyl)-5-(1-isobutyl-3-(trifluoromethyl)-1H-pyrazol-4-yl)-1-methyl-1H-imidazole-2-carboxamide] as the molecule, how does the IC90 read?
**A.** 531 nM

**Q.** For `CNC(=O)Cn1cc(-c2cnc(C(=O)Nc3ccc(C(=O)N4CCN(C(=O)C5CCNCC5)CC4)c(Cl)c3)n2C)c(C(F)(F)F)n1` [Example 28, N-(3-chloro-4-(4-(piperidine-4-carbonyl)piperazine-l-carbonyl)phenyl)-1-methyl-5-(1-(2-(methylamino)-2-oxoethyl)-3-(trifluoromethyl)-1H-pyrazol-4-yl)-1H-imidazole-2-carboxamide formate], which IC90 is on record?
**A.** 1490 nM

**Q.** How did the IC90 turn out when `Cc1cc(NC(=O)c2ncc(-c3c[nH]nc3C(F)(F)F)n2C)ccc1C(=O)N1CCN(C(=O)C2CCNCC2)CC1` [Example 29, 1-Methyl-N-(3-methyl-4-(4-(piperidine-4-carbonyl)piperazine-1-carbonyl)phenyl)-5-(3-(trifluoromethyl)-1H-pyrazol-4-yl)-1H-imidazole-2-carboxamide dihydrochloride] was run?
**A.** 1450 nM

**Q.** With `Cc1cc(NC(=O)c2ncc(-c3cn(CC#N)nc3C(F)(F)F)n2C)ccc1C(=O)N1CCN(C(=O)C2CCNCC2)CC1` [Example 30, 5-(1-(cyanomethyl)-3-(trifluoromethyl)-1H-pyrazol-4-yl)-1-methyl-N-(3-methyl-4-(4-(piperidine-4-carbonyl)piperazine-1-carbonyl)phenyl)-1H-imidazole-2-carboxamide] as the molecule, how does the IC90 read?
**A.** 867 nM

**Q.** Which IC90 does the source give for `C#CCn1cc(-c2cnc(C(=O)Nc3ccc(C(=O)NC[C@@H]4CCNC4)c(Cl)c3)n2C)c(C(F)(F)F)n1` [Example 31, (R)—N-(3-Chloro-4-((pyrrolidin-3-ylmethyl)carbamoyl)phenyl)-1-methyl-5-(1-(prop-2-yn-1-yl)-3-(trifluoromethyl)-1H-pyrazol-4-yl)-1H-imidazole-2-carboxamide hydrochloride] here?
**A.** 962 nM

**Q.** `C#CCn1cc(-c2cnc(C(=O)Nc3ccc(C(=O)NC[C@H]4CCNC4)c(Cl)c3)n2C)c(C(F)(F)F)n1` [Example 32, (S)-N-(3-chloro-4-((pyrrolidin-3-ylmethyl)carbamoyl)phenyl)-1-methyl-5-(1-(prop-2-yn-1-yl)-3-(trifluoromethyl)-1H-pyrazol-4-yl)-1H-imidazole-2-carboxamide hydrochloride] was tested. Which IC90 did it give?
**A.** 896 nM
